The text below walks through data of US8148388B2, “2,4 (4,6) pyrimidine derivatives” (Janssen Pharmaceutica, N.V., priority 2004, dated 2012).

Common to all, as to type: biochemical
In test [1] the target is T1, EGFR-kinase domain (Homo sapiens, UniProt P00533).
T1 construct: 0.5 μg EGFR-kinase domain/well
As to the kind of experiment: In vitro inhibition of EGFR (Flash Plate assay). The following applies: full dose response 1.10^−6M to 1.10^−10M, read-out: C12 EGFR flash Score. How it is done:
The in vitro inhibition of EGFR was assessed using either the Flash Plate technology or the glass-fiber filter technology as described by Davies, S. P. et al., Biochem J. (2000), 351; p. 95-105. The Flash Plate technology is generally described by B. A. Brown et al. in High Throughput Screening (1997), p. 317-328. Editor(s): Devlin, John P. Publisher: Dekker, New York, N.Y.
In the Flash Plate EGFR kinase reaction assay, a kinase substrate consisting of biotinylated poly(L-glutamic acid-L-tyrosine) (poly(GT)biotin), is incubated with the aforementioned protein in the presence of (^33P) radiolabeled ATP. (^33P) phosphorylation of the substrate is subsequently measured as light energy emitted using a streptavidin-coated Flash Plate (PerkinElmer Life Sciences) by trapping and quantifying the binding of the biotin tagged and radiolabeled substrate.
The EGFR kinase reaction is performed at 30° C. for 60 minutes in a 96-well microtiter FlashPlate (PerkinElmer Life Sciences). For each of the tested compounds a full dose response 1.10^−6M to 1.10^−10M has been performed. IRESSA® and Tarceva™ (erlotinib) were used as reference compounds. The 100 μl reaction volume contains 54.5 mM TrisHCl pH 8.0, 10 mM MgCl2, 100 μM Na3VO4, 5.0 μM unlabeled ATP, 1 mM DTT, 0.009% BSA, 0.8 μCi AT^33P, 0.35 μg/well poly(GT)biotin and 0.5 μg EGFR-kinase domain/well.
The reaction is stopped by aspirating the reaction mixture and washing the plate 3× with 200 μl wash/stop buffer (PBS+100 mM EDTA). After the final wash step 200 μl of wash/stop buffer was added to each well and the amount of phosphorylated (^33P) Poly(GT)biotin determined by counting (30 sec/well) in a microtiterplate scintillation counter.

Test [2] addresses Yes (h) (Homo sapiens, UniProt P07947). The experiment in a line: Yes human kinase assay (glass-fiber filter). The note with it: test concentration of 10^−6M; read-out: C11 score (inhibition of Yes human). Here is the method: (§1) In the glass-fiber filter technology the activity of the kinase of interest is measured using an appropriate substrate that is incubated with the aforementioned kinase protein in the presence of (^33P) radiolabeled ATP. (^33P) Phosphorylation of the substrate is subsequently measured as radioactivity bound on a glass fiber-filter.
(§2) All kinases are pre-diluted to a 10× working concentration prior to addition into the assay. The composition of the dilution buffer for each kinase is detailed below.
In a final reaction volume of 25 μl, Yes (h) (5-10 mU) is incubated with 8 mM MOPS pH 7.0, 0.2 mM EDTA, 0.1 mg/ml poly(Glu, Tyr) 4:1, 10 mM MgAcetate and [γ-^33P-ATP] (specific activity approx. […], concentration as required). The reaction is initiated by the addition of the MgATP mix. After incubation for 40 minutes at room temperature, the reaction is stopped by the addition of 5 μl of a 3% phosphoric acid solution. 10 μl of the reaction is then spotted onto a Filtermat A and washed three times for 5 minutes in 75 mM phosphoric acid and once in methanol prior to drying and scintillation counting.

Test [3] deals with Flt3 (h) (Homo sapiens, UniProt P36888). As to the kind of experiment: Flt3 human kinase assay (glass-fiber filter). The following applies: test concentration of 10^−6M; read-out: C6 score (inhibition of Flt3 human). How it is done:
(§3) The in vitro inhibition of a panel of kinases was assessed using either the glass-fiber filter technology as described by Davies, S. P. et al., Biochem J. (2000), 351; p. 95-105.
as §1, §2
In a final reaction volume of 25 μl, Flt3 (h) (5-10 mU) is incubated with 8 mM MOPS pH 7.0, 0.2 mM EDTA, 50 μM […], 10 mM MgAcetate and [γ-^33P-ATP] (specific activity approx. 500 cpm/pmol, concentration as required). The reaction is initiated by the addition of the MgATP mix. After incubation for 40 minutes at room temperature, the reaction is stopped by the addition of 5 μl of a 3% phosphoric acid solution. 10 μl of the reaction is then spotted onto a P30 filtermat and washed three times for 5 minutes in 75 mM phosphoric acid and once in methanol prior to drying and scintillation counting.

The target of test [4] is Lck (h) (Homo sapiens, UniProt P06239). As to the kind of experiment: Lck human kinase assay (glass-fiber filter). The note with it: test concentration of 10^−6M; read-out: C9 score (inhibition of Lck human). How it is done: (§4) The in vitro inhibition of a panel of kinases was assessed using either the glass-fiber filter technology as described by Davies, S. P. et al., Biochem J. […] In the glass-fiber filter technology the activity of the kinase of interest is measured using an appropriate substrate that is incubated with the aforementioned kinase protein in the presence of (^33P) radiolabeled ATP. (^33P) Phosphorylation of the substrate is subsequently measured as radioactivity bound on a glass fiber-filter. All kinases are pre-diluted to a 10× working concentration prior to addition into the assay. The composition of the dilution buffer for each kinase is detailed below. [table] […] The reaction is initiated by the addition of the MgATP mix. […] 10 μl of the reaction is then spotted onto a P30 filtermat and washed three times for 5 minutes in 75 mM phosphoric acid and once in methanol prior to drying and scintillation counting.
Chain of Lck (h) (P06239 whole entry): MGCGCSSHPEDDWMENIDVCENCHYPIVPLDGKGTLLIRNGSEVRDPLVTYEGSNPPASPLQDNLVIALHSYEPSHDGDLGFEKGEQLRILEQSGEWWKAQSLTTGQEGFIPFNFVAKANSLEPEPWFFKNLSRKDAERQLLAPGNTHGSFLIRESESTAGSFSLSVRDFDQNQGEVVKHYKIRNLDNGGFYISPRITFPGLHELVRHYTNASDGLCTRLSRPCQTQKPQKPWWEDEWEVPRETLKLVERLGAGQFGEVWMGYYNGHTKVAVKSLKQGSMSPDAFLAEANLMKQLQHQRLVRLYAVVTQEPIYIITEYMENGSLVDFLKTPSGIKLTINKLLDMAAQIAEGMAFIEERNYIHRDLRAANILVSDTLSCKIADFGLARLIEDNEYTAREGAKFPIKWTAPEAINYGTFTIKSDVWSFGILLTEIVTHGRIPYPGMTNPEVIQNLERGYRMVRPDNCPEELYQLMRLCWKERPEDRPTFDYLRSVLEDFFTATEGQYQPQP

The target in test [5] is cSRC (h) (Homo sapiens, UniProt P12931). The experiment in a line: cSRC human kinase assay (glass-fiber filter). The note with it: test concentration of 10^−6M; read-out: C3 score (inhibition of cSRC human). How it is done: as §4, with “below.” for “below. [table]”
Chain of cSRC (h) (P12931 whole entry): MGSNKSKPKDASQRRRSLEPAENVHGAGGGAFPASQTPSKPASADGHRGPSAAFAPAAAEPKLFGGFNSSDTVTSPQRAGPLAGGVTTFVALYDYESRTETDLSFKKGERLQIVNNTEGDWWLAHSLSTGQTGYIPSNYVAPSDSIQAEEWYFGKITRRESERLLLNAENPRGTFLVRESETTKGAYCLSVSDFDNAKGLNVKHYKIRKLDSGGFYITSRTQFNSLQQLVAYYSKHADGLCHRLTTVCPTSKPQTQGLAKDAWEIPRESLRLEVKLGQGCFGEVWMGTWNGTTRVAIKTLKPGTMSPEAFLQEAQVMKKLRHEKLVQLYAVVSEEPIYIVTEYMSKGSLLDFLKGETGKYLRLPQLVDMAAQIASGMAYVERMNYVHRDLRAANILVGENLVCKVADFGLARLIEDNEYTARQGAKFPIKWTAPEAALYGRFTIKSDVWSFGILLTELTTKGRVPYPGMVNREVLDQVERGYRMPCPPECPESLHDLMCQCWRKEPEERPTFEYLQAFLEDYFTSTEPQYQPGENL
Test [6] concerns the target Fms (h) (Homo sapiens, UniProt P07333). As to the kind of experiment: Fms human kinase assay (glass-fiber filter). The following applies: test concentration of 10^−6M; read-out: C7 score (inhibition of Fms human). Here is the method: as §3, §1, §2
In a final reaction volume of 25 μl, Fms (h) (5-10 mU) is incubated with 8 mM MOPS pH 7.0, 0.2 mM EDTA, 250 μM […], 10 mM MgAcetate and [γ-^33P-ATP] (specific activity approx. 500 cpm/pmol, concentration as required). The reaction is initiated by the addition of the MgATP mix. After incubation for 40 minutes at room temperature, the reaction is stopped by the addition of 5 μl of a 3% phosphoric acid solution. 10 μl of the reaction is then spotted onto a P30 filtermat and washed three times for 5 minutes in 75 mM phosphoric acid and once in methanol prior to drying and scintillation counting.

One may read the inhibition as the change of the read-out against control, counted positive when it falls.

Chain of Fms (h) (P07333 20-972): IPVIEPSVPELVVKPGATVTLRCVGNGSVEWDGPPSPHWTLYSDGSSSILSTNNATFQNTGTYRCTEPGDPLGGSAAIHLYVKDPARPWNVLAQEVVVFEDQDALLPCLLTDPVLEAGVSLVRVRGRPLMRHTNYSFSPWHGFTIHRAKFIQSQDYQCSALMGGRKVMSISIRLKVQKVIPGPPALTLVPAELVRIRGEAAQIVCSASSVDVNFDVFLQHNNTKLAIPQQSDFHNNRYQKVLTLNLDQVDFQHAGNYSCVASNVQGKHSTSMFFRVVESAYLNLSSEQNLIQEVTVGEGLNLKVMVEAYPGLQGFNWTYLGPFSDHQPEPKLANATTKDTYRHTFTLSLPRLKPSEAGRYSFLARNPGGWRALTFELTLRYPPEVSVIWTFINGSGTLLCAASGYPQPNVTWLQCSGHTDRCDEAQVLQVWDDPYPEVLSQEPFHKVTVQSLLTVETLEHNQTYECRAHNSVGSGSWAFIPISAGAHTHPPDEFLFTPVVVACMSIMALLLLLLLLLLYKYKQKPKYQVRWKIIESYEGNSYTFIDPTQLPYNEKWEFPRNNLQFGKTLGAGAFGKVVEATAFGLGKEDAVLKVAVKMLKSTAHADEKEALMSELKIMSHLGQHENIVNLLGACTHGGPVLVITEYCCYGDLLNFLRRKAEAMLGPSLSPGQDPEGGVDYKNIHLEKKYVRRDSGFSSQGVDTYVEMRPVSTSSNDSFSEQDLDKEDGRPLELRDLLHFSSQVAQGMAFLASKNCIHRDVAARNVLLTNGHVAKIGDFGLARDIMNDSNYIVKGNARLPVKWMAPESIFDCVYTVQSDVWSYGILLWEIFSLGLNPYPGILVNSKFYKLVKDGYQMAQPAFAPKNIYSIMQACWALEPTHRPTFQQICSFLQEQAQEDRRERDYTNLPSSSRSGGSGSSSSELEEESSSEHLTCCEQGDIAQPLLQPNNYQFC
T1 sequence (P00533 712-979 limits assumed): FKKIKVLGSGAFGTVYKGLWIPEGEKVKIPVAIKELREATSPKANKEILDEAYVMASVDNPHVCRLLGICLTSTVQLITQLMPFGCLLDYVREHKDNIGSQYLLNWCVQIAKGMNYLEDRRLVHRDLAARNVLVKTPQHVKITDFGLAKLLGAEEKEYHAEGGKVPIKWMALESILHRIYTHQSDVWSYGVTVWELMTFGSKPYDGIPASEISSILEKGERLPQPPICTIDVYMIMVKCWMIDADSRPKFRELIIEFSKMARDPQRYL
Chain of Yes (h) (P07947 whole entry): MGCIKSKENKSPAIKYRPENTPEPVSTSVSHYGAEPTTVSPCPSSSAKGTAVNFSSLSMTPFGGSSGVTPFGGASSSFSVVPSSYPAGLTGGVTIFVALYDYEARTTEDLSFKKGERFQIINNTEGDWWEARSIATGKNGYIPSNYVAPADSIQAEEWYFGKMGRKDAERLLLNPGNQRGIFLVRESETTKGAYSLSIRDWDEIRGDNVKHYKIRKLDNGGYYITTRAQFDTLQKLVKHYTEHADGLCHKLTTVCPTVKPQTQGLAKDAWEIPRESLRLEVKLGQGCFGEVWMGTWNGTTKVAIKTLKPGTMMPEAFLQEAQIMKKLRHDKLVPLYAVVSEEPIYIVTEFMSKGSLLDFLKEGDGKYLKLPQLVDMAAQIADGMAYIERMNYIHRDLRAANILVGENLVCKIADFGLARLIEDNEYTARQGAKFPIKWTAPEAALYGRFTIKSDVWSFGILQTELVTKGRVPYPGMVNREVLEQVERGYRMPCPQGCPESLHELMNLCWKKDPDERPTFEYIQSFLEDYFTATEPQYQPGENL
Chain of Flt3 (h) (P36888 27-993): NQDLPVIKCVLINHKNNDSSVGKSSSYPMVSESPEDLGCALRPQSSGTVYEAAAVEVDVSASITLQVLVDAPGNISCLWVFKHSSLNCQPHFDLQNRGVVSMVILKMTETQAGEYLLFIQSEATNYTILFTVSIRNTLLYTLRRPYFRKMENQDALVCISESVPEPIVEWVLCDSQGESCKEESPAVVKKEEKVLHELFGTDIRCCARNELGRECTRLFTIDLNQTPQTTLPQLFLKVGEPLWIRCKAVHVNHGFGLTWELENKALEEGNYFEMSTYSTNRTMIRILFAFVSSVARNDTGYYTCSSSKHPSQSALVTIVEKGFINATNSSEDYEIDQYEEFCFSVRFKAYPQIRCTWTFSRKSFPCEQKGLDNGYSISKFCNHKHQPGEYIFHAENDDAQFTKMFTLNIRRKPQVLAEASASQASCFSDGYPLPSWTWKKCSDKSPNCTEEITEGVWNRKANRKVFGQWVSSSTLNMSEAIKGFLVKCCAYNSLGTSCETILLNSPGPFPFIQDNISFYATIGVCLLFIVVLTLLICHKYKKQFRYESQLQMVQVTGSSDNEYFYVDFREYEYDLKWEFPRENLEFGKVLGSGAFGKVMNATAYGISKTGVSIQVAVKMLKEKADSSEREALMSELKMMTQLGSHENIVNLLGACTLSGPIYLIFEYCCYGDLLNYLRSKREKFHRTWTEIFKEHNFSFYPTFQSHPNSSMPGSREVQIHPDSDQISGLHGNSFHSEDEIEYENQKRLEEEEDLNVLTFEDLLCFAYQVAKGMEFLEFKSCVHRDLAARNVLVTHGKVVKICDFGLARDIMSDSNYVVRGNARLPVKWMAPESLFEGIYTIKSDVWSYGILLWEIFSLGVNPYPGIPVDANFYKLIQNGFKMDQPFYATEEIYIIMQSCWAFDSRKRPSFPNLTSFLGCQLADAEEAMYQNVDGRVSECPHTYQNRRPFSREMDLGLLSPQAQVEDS

As to `COc1ccc2cc1OCCNC(=O)C1CCCN(C1)C(=O)COc1ccc(cc1)Nc1cc(ncn1)N2` (stereo not drawn) [Compound 140], the IC50 in test [1] was in the range of 1000 to 10000 nM.
Take `O=C1CCN(CCN2CCOCC2)Cc2cccc(c2)Nc2cc(ncn2)Nc2cccc(c2)OCCCCN1` [Compound 195]: the IC50 in test [1] is 1000 to 10000 nM.
On the same count and under the same terms, the figure for `O=C1COc2cccc(c2)Nc2cc(ncn2)Nc2cccc(c2)OCCCCCNC(=O)C(Cc2cccnc2)N1` (stereo not drawn) [Compound 180] is 1000 to 10000 nM; for `CCN1CCC(=O)NCCOc2cc(ccc2OC)Nc2cc(ncn2)Nc2ccc(Cl)c(c2)C1` [Compound 113] it is 1000 to 10000 nM; for `COc1ccc2cc1OCCNC(=O)C1CCCCN1Cc1cc(ccc1Cl)Nc1cc(ncn1)N2` (racemic) [Compound 145] it is 1000 to 10000 nM.
As for `CCN1CCNC(=O)C(CC2CCCCC2)NC(=O)COc2ccc(cc2)Nc2cc(ncn2)Nc2cccc(c2)C1` (stereo not drawn) [Compound 135], the IC50 in test [1] fell in the range of 1000 to 10000 nM.
For the molecule `CN1Cc2cccc(c2)Nc2cc(ncn2)Nc2cccc(c2)OCCCCNC(=O)CCN2CCC1CC2` [Compound 196], in test [1], the IC50 fell in the range of 1000 to 10000 nM.
As for `CCN1CC(=O)NCCOc2cc(ccc2OC)Nc2cc(ncn2)Nc2ccc(Cl)c(c2)C1` [Compound 183], the IC50 in test [1] is 1000 to 10000 nM.
As to `O=C1COc2cccc(c2)Nc2nccc(n2)Nc2cccc(c2)OCCCN1` [Compound 29, 14,21-dioxa-2,4,8,18,28-pentaazatetracyclo[20.3.1.1~3,7~.1~9,13~]octacosa-1(26),3,5,7(28),9,11,13(27),22,24-nonaen-19-one], the inhibition at 1 µM in test [2] was 60 to 80%; in test [3], > 80%; in test [4] it was 30 to 60%; in test [5] it was 10 to 30%; in test [6] it was 10 to 30%.
Consider `CCN1CC(=O)NCCCCCOc2ccccc2Nc2cc(ncn2)Nc2cccc(c2)C1` [Compound 190], for which, in test [1], the IC50 fell in the range of 1000 to 10000 nM.
On the same count and under the same terms, in the case of `COc1ccc2cc1OCCNC(=O)C(CCSC)NC(=O)COc1cccc(c1)Nc1cc(ncn1)N2` (stereo not drawn) [Compound 173] it was 1000 to 10000 nM.
For the molecule `O=C1CNC(=O)CNC(=O)c2cccc(c2)Nc2cc(ncn2)Nc2cccc(c2)CN1` [Compound 61], the inhibition at 1 µM in test [2] lay within 10 to 30%; in test [6] it was 60 to 80%.
As for `COc1ccc2cc1OCCNC(=O)C1CN(CCC1O)Cc1cc(ccc1Cl)Nc1cc(ncn1)N2` (stereo not drawn) [Compound 182], the IC50 in test [1] lay within 1000 to 10000 nM.
In the case of `O=C1CCCCCCNC(=O)c2cccc(c2)Nc2cc(ncn2)Nc2cccc(c2)CN1` [Compound 57, 2,4,6,8,15,23-hexaazatetracyclo[23.3.1.1~3,7~.1~9,13~]hentriaconta-1(29),3,5,7(31),9,11,13(30),25,27-nonaene-14,22-dione], the inhibition at 1 µM in test [3] lay in the range of 30 to 60%.
In the case of `COc1ccc2cc1OCCNC(=O)CC(CC(C)C)NC(=O)COc1ccc(cc1)Nc1cc(ncn1)N2` (stereo not drawn) [Compound 141], the IC50 in test [1] lay in the range of 1000 to 10000 nM.
As for `CN1Cc2cccc(c2)Nc2cc(ncn2)Nc2ccccc2OCCCCCNC(=O)CCN2CCC1CC2` [Compound 186], the IC50 in test [1] lay within 1000 to 10000 nM.
Still for that read-out and setting: in the case of `COc1ccc2cc1OCCNC(=O)CCCN(C)Cc1cc(ccc1Cl)Nc1cc(ncn1)N2` [Compound 111] it was 1000 to 10000 nM.
For `COc1ccc2cc1OCCNC(=O)CCN1CCC(CC1)N(C)Cc1cc(ccc1Cl)Nc1cc(ncn1)N2` [Compound 127], the IC50 in test [1] lay in the range of 1000 to 10000 nM.
Same read-out and setting: the figure for `COCC1NC(=O)COc2cccc(c2)Nc2cc(ncn2)Nc2cccc(c2)OCCCCCNC1=O` (stereo not drawn) [Compound 179] is 1000 to 10000 nM.
Take `CC(C)C1NC(=O)c2cccc(c2)Nc2cc(ncn2)Nc2cccc(c2)CNC(=O)CNC1=O` (stereo not drawn) [Compound 60]: the inhibition at 1 µM in test [2] and in test [6] was 10 to 30% in each case.
Turning to `CCN1CCNC(=O)C2CN(CCO2)C(=O)COc2ccc(cc2)Nc2cc(ncn2)Nc2cccc(c2)C1` (stereo not drawn) [Compound 136], the IC50 in test [1] was < 1000 nM.
